# Patent US20040071653A1, “Antimicrobial ternary surfactant blend comprising cationic, anionic, and bridging surfactants, and methods of preparing same” (Stepan Company, priority 2000, published 2004)
# Columns and labels:
# [1] = system: Escherichia coli (ATCC 11229); assay: Minimum Inhibitory Concentration test, bacteriostatic responses; assay type: cell-based; details: for Bacteriostatic response E. coli: triplicate; for Minimum Inhibitory Concentration E. coli: lowest concentration completely inhibiting growth in all three replicates
# Method: (§1) [table] [table] Add 0.1 ml of inoculum to each 20×150 mm test tube containing 9.0 ml of Nutrient or Sabouraud Dextrose Broth and 1 ml of a aqueous dilution of the test sample. Vortex tube to mix then incubate bacteria inoculated tubes at 36±1° C. for a minimum of 48±1 hour and fungi inoculated tubes at 28° C. for 7-10 days. Following incubation, observe tubes visually for the presence of growth (i.e. turbidity). Perform all testing in triplicate.
# [2] = system: Staphylococcus aureus (ATCC 6538); assay: as above; assay type: cell-based; details: for Bacteriostatic response S. aureus: triplicate; for Minimum Inhibitory Concentration S. aureus: lowest concentration completely inhibiting growth in all three replicates
# Method: as §1
# [3] = system: Pseudomonas aeruginosa (ATCC 15442); assay: as above; assay type: cell-based; details: for Minimum Inhibitory Concentration P. aeruginosa: lowest concentration completely inhibiting growth in all three replicates; for Bacteriostatic response P. aeruginosa: triplicate
# Method: as §1
# [4] = system: Aspergillus niger (ATCC 16404); assay: Minimum Inhibitory Concentration test, fungistatic responses; assay type: cell-based; details: for Fungistatic response A. niger: triplicate; for Minimum Inhibitory Concentration A. niger: lowest concentration completely inhibiting growth in all three replicates
# Method: as §1
# [5] = system: Candida albicans (ATCC 10231); assay: as above; assay type: cell-based; details: for Fungistatic response C. albicans: triplicate; for Minimum Inhibitory Concentration C. albicans: lowest concentration completely inhibiting growth in all three replicates
# Method: as §1
# [6] = Ross Miles foaming, initial and final; assay type: physicochemical; details: 0.1% in water
# Text: (§2) In the following examples, all amounts are stated in percent by weight of active material unless indicated otherwise. Surface tension measurements, Draves wetting measurements, and Ross Miles foaming initial and final measurements all were taken at 0.1% concentration of the surfactant blend in water.
# [7] = Draves wetting measurement; assay type: physicochemical; details: 0.1% in water
# Text: as §2
# [8] = Surface tension measurement; assay type: physicochemical; details: 0.1% surfactant blend in water
# Text: as §2
# [9] = system: Escherichia coli (ATCC 11229); assay: Time-Kill; assay type: cell-based; details: 100 ppm active
# Method: (§3) Formulation 11-1 was prepared as described above and evaluated at two different concentrations against various microorganisms to determine the time required to kill certain levels of the microorganisms. Control formulation 11-2 was also tested in this assay at the same concentrations.
# (§4) Preparation: Transfer each organism from stock slant to sterile Nutrient Broth (NB) tube. Incubate NB tubes at 36±1° C. After 24 hours incubation, subculture each broth culture to fresh tube of sterile NB. Repeat subculturing procedure at 24 hour intervals. Use cultures for testing after at least three consecutive 24 hour subculturings.
# (§5) 2. Dispense 4.9 gram aliquots of each sample* into sterile medication tubes. Use one tube per organism. (*log10 reductions can be calculated by subtracting the log10 of the average inoculum count from the log10 of the test substance count after 30 seconds, 1 minute or 5 minutes contact)
# (§6) 3. Centrifuge 18-24 hour broth culture of each test organism. Decant supernatant and re-suspend in equal volume of phosphate buffer. Re-centrifuge and re-suspend in phosphate buffer. Prepare 1:10 dilution of each culture suspension by adding 2 ml of culture to 18 ml of phosphate buffer. Mix by vortexing. Use this 1:10 dilution as the test inoculum.
# (§7) 4. Perform initial plate count of the test inoculum by adding 0.1 ml of the inoculum to 4.9 grams of sterile distilled water. Vortex to mix, then remove 1 ml of solution and dilute in D/E Broth to 1:100,000. Plate 1:1,000, 1:10,000, and 1:100,000 dilutions in Microbial Content Agar (Difco).
# (§8) 5. Begin testing of substances by adding 0.1 ml of test inoculum to sample tube. Vortex to mix. After 30 seconds, remove 1 ml of sample and add to 9 mls of DE broth, rinse pipette 5 times with sample and vortex. Remove additional 1 ml sample after 1 and 5 minutes contact and add to 9 mls of D/E Broth. Dilute each tube to 1:10,000 in D/E Broth and plate 1:1,000, 1:10,000, and 1:100,000 dilutions in Microbial Content Agar.
# (§9) 7. After completion of step 6, perform final plate count of inoculum suspension by adding 0.1 ml of the suspension to 4.9 grams of sterile distilled water. Vortex to mix then remove 1 ml of solution and dilute in D/E Broth to 1:100,000. Plate 1:1,000, 1:10,000, and 1:100,000 dilutions in Microbial Content Agar (Difco).
# (§10) 8. Incubate plates at 36±1° C. for 48 hours.
# (§11) 9. Record all test results and calculate percent kills* after 30 seconds, 1 minute, and 5 minutes contact as follows: (*log10 reductions can be calculated by subtracting the log10 of the average inoculum count from the log10 of the test substance count after 30 seconds, 1 minute or 5 minutes contact) [formula]
# (§12) X=Average of initial and final inoculum control counts, org/ml (Note: The difference between initial and final inoculum counts must be≦1 log for a valid study)
# (§13) Y=Test substance bacterial count as org/ml after 30 seconds, 1 minute, or 5 minutes contact
# [10] = system: Staphylococcus aureus (ATCC 6538); assay: Time-Kill; assay type: cell-based; details: 100 ppm active
# Method: as §3, §4, §5, §6, §7, §8, §9, §10, §11, §12, §13
# [11] = system: Aspergillus niger (ATCC 6275); assay: Time-Kill; assay type: cell-based; details: 100 ppm active
# Method: as §3, §4, §5, §6, §7, §8, §9, §10, §11, §12, §13
# [12] = system: Candida albicans (ATCC 10231); assay: Time-Kill; assay type: cell-based; details: 100 ppm active
# Method: as §3, §4, §5, §6, §7, §8, §9, §10, §11, §12, §13
# Pa (ATCC 9027) = assay: Time-Kill; assay type: cell-based, Pseudomonas aeruginosa; details: 50 ppm active
# Method: as §3, §4, §5, §6, §7, §8, §9, §10, §11, §12, §13
# [13] = system: Psudomonas aeruginosa (ATCC 15442); assay: Time-Kill; assay type: cell-based, Pseudomonas aeruginosa; details: 100 ppm active
# Method: as §3, §4, §5, §6, §7, §8, §9, §10, §11, §12, §13
compound,measurement,setting,value
"CCCCCCCCCCCC[N+](C)(C)[O-] [AMMONYX-LO, Lauramine oxide]",Bacteriostatic response E. coli,[1]; 1000 ppm active,000
same,Minimum Inhibitory Concentration E. coli,[1],"1000 ppm, active"
same,Bacteriostatic response S. aureus,[2]; 100 ppm active,000
same,Bacteriostatic response S. aureus,[2]; 1000 ppm active,000
same,Minimum Inhibitory Concentration S. aureus,[2],"100 ppm, active"
same,Minimum Inhibitory Concentration P. aeruginosa,[3],">1000 ppm, active"
same,Fungistatic response A. niger,[4]; 100 ppm active,000
same,Fungistatic response A. niger,[4]; 1000 ppm active,000
same,Minimum Inhibitory Concentration A. niger,[4],"100 ppm, active"
same,Fungistatic response C. albicans,[5]; 100 ppm active,000
same,Fungistatic response C. albicans,[5]; 1000 ppm active,000
same,Minimum Inhibitory Concentration C. albicans,[5],"100 ppm, active"
"CCCCCCCCS(=O)(=O)[O-].[Na+] [BIO-TERGE PAS-8S, Sodium 1-octane sulfonate]",Minimum Inhibitory Concentration E. coli,[1],">1000 ppm, active"
same,Minimum Inhibitory Concentration S. aureus,[2],">1000 ppm, active"
same,Minimum Inhibitory Concentration P. aeruginosa,[3],">1000 ppm, active"
same,Minimum Inhibitory Concentration A. niger,[4],">1000 ppm, active"
same,Minimum Inhibitory Concentration C. albicans,[5],">1000 ppm, active"
"CCCCCCCCCC[N+](C)(C)C.[Cl-] [QC10, Decyltrimethylammonium chloride]",Foaming Final,[6],0/0 cm
same,Foaming Initial,[6],0/0 cm
same,Wetting,[7],100 s
same,Surface Tension,[8],39.28 mN/m
Cocamidopropyl betaine [Amphosol ® CA],Foaming Final,[6],12.9 cm
same,Foaming Initial,[6],13 cm
same,Wetting,[7],100 s
same,Surface Tension,[8],36.75 mN/m
N-Alkyl dimethyl benzyl ammonium chloride [BTC 65NF],Percent Kill Ec,[9]; 5 Minutes contact,>99.9 % K
same,Percent Kill Ec,[9]; 30 Seconds contact,>99.9 % K
same,Percent Kill Ec,[9]; 60 Seconds contact,>99.9 % K
same,Percent Kill Sa,[10]; 5 Minutes contact,>99.8 % K
same,Percent Kill Sa,[10]; 30 Seconds contact,65.5 % K
same,Percent Kill Sa,[10]; 60 Seconds contact,83.6 % K
same,Percent Kill An,[11]; 5 Minutes contact,92.3 % K
same,Percent Kill An,[11]; 30 Seconds contact,0.0 % K
same,Percent Kill An,[11]; 60 Seconds contact,22.5 % K
same,Percent Kill Ca,[12]; 5 Minutes contact,>99.7 % K
same,Percent Kill Ca,[12]; 30 Seconds contact,>99.7 % K
same,Percent Kill Ca,[12]; 60 Seconds contact,>99.7 % K
same,Percent Kill Pa (ATCC 9027),Pa (ATCC 9027); 5 Minutes contact,>99.9 % K
same,Percent Kill Pa (ATCC 9027),Pa (ATCC 9027); 30 Seconds contact,99.9 % K
same,Percent Kill Pa (ATCC 9027),Pa (ATCC 9027); 60 Seconds contact,>99.9 % K
same,Percent Kill Pa,[13]; 5 Minutes contact,99.9 % K
same,Percent Kill Pa,[13]; 30 Seconds contact,99.9 % K
same,Percent Kill Pa,[13]; 60 Seconds contact,99.9 % K
same,Bacteriostatic response E. coli,[1]; 10 ppm active,000
same,Bacteriostatic response E. coli,[1]; 100 ppm active,000
same,Bacteriostatic response E. coli,[1]; 1000 ppm active,000
same,Minimum Inhibitory Concentration E. coli,[1],"10 ppm, active"
same,Bacteriostatic response S. aureus,[2]; 1 ppm active,000
same,Bacteriostatic response S. aureus,[2]; 10 ppm active,000
same,Bacteriostatic response S. aureus,[2]; 100 ppm active,000
same,Bacteriostatic response S. aureus,[2]; 1000 ppm active,000
same,Minimum Inhibitory Concentration S. aureus,[2],"<1 ppm, active"
same,Bacteriostatic response P. aeruginosa,[3]; 100 ppm active,000
same,Bacteriostatic response P. aeruginosa,[3]; 1000 ppm active,000
same,Minimum Inhibitory Concentration P. aeruginosa,[3],"100 ppm, active"
same,Fungistatic response A. niger,[4]; 10 ppm active,000
same,Fungistatic response A. niger,[4]; 100 ppm active,000
same,Fungistatic response A. niger,[4]; 1000 ppm active,000
same,Minimum Inhibitory Concentration A. niger,[4],"10 ppm, active"
same,Fungistatic response C. albicans,[5]; 10 ppm active,000
same,Fungistatic response C. albicans,[5]; 100 ppm active,000
same,Fungistatic response C. albicans,[5]; 1000 ppm active,000
same,Minimum Inhibitory Concentration C. albicans,[5],"10 ppm, active"
